Assay results as given in patent US4499107A, “Method for treating infected renal calculosis” (Dr. L^o. Zambeletti, S.p.A., priority 1981, dated 1985).
Read-outs that look alike come from different tables or passages of the source.

Experiments:
[1] = set-up: species or system "Wistar" rats; settings: rat, in vivo, po, 200 mg/kg
Experimental: Subacute toxicity. A test lasting 4 weeks has been carried out on the two compounds administered at the dose of 200 mg/kg by oral route to groups of "Wistar" rats, 8 males and 8 females, with daily observation of the behavior, of health status, of feed and water consumption and, twice a week, of the body weight of animals. At the end of 4 weeks the animals have been sacrificed and autopsy and haematological and haematochemical examinations have been performed on them. For all the duration of the test, no anomaly has been noticed in the behavior of both AHA-treated and PHA-treated animals.

[2] = tested on: mouse embryonal cell cultures; settings: 1,1.10^-4 M; cited from earlier work
[3] = tested on: chinese hamster embryonal cell cultures; settings: 1,1.10^-4 M; cited from earlier work
Acute toxicity = settings: mouse, in vivo
[4] = tested on: Salmonella typhimurium (TA 100 and TA 98); settings: strains TA 100 and TA 98, 40,000 μg/plate; cited from earlier work
[5] = pregnant female rats, 12th day of pregnancy, cited from earlier work
[6] = rabbit, in vivo; for duration of the reduction of the arterial pressure: po, 100 mg/kg
[7] = tested on: urease-producing bacteria; settings: renal lithiasis sustained by urease-producing bacteria; cited from earlier work
[8] = Teratogenesis in pregnant female rats
[9] = tested on: urinary infection caused by urease-producing bacteria; type: in vivo, patient
Source text: The results shown above, pointing out a globally superimposable behavior of AHA and PHA, with the exclusion of the fundamental aspects of the mutagenesis and of the theratogenesis, which are absent in propionhydroxamic acid, prompted to test this latter compound on some clinical cases, hereunder reported. (1) Urinary infection caused by urease-producing bacteria; (2) relapsing renal calculosis.

[10] = tested on: Salmonella typhimurium (TA 100 and TA 98); assay: Ames test; type: cell-based
Experimental: In the Belgian Pat. No. 878,836, Jan. 16, 1980, it is moreover reported that AHA is mutagenic according to the Ames test on two strains of Salmonella typhimurium (TA 100 and TA 98), at the dose of 40,000 μg/plate.
(§1) Mutagenesis. As far as AHA is concerned, it has been previously reported. […] The propionhydroxamic acid is non mutagenic also in the Ames test.

[11] = tested on: mouse embryonal cell cultures; assay: Mutagenesis: morphological changes of the chromosomes in embryonal cell cultures; type: cell-based; settings: 1.1 10^-4 M, 24-72 hours of incubation
Source text: as §1

[12] = tested on: chinese hamster embryonal cell cultures; assay: as above; type: cell-based; settings: 1.1 10^-4 M, 24-72 hours of incubation
Source text: as §1

[13] = rat, in vivo, ip, 300 mg/kg
[14] = Case 1, 500 mg/die combined with antibiotic therapy
[15] = Case 2, 375 mg/die combined with antibiotic therapy
[16] = Case 4, 500 mg/die with antibiotic therapy, after 3 months
[17] = Case 5, 500 mg/die with antibiotic therapy

CC(=O)NO [AHA, acetohydroxamic acid, reference compound]
autoptical examination of the main organs (thymus, testes, heart, liver) [1]: hypotrophy of the main organs | behavior of animals [1]: no anomaly | feed consumption [1]: decrease | haematochemical parameters, AHA versus PHA [1]: No remarkable differences | macroscopic lesion of the main organs [1]: no macroscopic lesion | morphological changes of the chromosomes provoked by damages at DNA [2]: causes morphological changes of the chromosomes | morphological changes of the chromosomes provoked by damages at DNA [3]: causes morphological changes of the chromosomes | LD50 (Acute toxicity; po): 2740 mg/kg | mutagenicity in the Ames test [4]: mutagenic | fetuses with deformations ([5]; i.p. 750 mg/kg una tantum): 50% | deaths of fetuses ([5]; i.p. 1000 mg/kg una tantum): 55% | deformations in the survived fetuses ([5]; i.p. 1000 mg/kg una tantum): 100% | reabsorption of fetuses ([5]; i.p. 1500 mg/kg una tantum): 100% | reduction of the mean arterial pressure ([6]; 50 mg/kg): 15% | time after administration at which the reduction of mean arterial pressure is still present ([6]; 50 mg/kg): ≥ 120 min | duration of the reduction of the arterial pressure [6]: > 120 min | drug's action on urinary ammonium and urinary pH [7]: decrease of urinary ammonium and urinary pH | dead fetuses (comparison value) ([8]; dose for AHA not stated at this place): 50%

CCC(=O)NO [PHA, propionhydroxamic acid]
autoptical examination of the main organs (thymus, testes, heart, liver) [1]: hypotrophy of the main organs | behavior of animals [1]: no anomaly | feed consumption [1]: decrease | haematochemical parameters, AHA versus PHA [1]: No remarkable differences | macroscopic lesion of the main organs [1]: no macroscopic lesion | urinary ammonium values [9, 14]: normalization | urinary pH [9, 14]: normalization | urinary cultures ([9]; Case 1, 500 mg/die combined with antibiotic therapy, Proteus mirabilis): sterilization of urinary cultures | effect of temporary interruption of the drug ([9]; Case 2, 375 mg/die): reapparence of urease producing bacteria (Klebsiella) | urinary ammonium values [9, 15]: decrease of urinary ammonium values | urinary infection [9, 15]: resolution of urinary infection | urinary acidification ([9]; Case 2, 375 mg/die combined with antibiotic therapy, Proteus mirabilis and Klebsiella): sufficient urinary acidification | volumetric increase of the lithiasic relapse ([9]; Case 2, 375 mg/die, during 5 months' therapy): not observed | lithiasic relapse at the left kidney ([9]; Case 3): Absence of lithiasic relapse | crystalluria ([9]; Case 3, combination): non pathologic crystalluria | urinary ammonium ([9]; Case 3, combination, Proteus mirabilis): normalization | lithiasic relapse at the left kidney ([9]; Case 4, 500 mg/die): no lithiasic relapse | crystalluria [9, 16]: normalization | urinary pH [9, 16]: normalization | ammonium values ([9]; Case 4, 500 mg/die with antibiotic therapy, after 3 months, Proteus mirabilis and Klebsiella): normalization | growth of the already present lithiasic formation [9, 17]: stopping of the growth | onset of further relapses [9, 17]: lacking onset of further relapses | urinary infection [9, 17]: resolution of urinary infection | urinary pH [9, 17]: normalization | urinary ammonium ([9]; Case 5, 500 mg/die with antibiotic therapy, Proteus mirabilis): normalization | LD50 (Acute toxicity; oral route, confidence limits in brackets): 2370 mg/kg | mutagenicity in the Ames test [10]: non mutagenic | morphologic change of the chromosomes provoked by damages at DNA [11]: did not induce | morphologic change of the chromosomes provoked by damages at DNA [12]: did not induce | morphological development of the survived fetuses [13]: perfectly normal development | blood pressure ([6]; 50 mg/kg): does not change | heart rate ([6]; 50 mg/kg): does not change | duration of the reduction of the arterial pressure [6]: 10 to 30 min | dead fetuses ([8]; intraperitoneal, once on the 13th day of pregnancy, 300 mg/kg): 55%
